Experimental findings from patent US9828350B2, “5,6-dihydro-2H-[1,4]oxazin-3-yl-amine derivatives useful as inhibitors of beta-secretase (BACE)” (Janssen Pharmaceutica NV, priority 2010, dated 2017) are described below.

The test system of one data set is Abeta 1-42. Briefly: Cellular αLisa assay in SKNBE2 cells, Abeta 1-42. To be noted: incubated for 18 hours; for IC50: Homo sapiens, SKNBE2, 18 h, read-out: Cellular αLisa assay in SKNBE2 cells Abeta 42 pIC50 (converted). The class given is cell-based, human. The method, boiled down:
(§1)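 Secreted Abeta levels were measured by sandwich αLisa, pairing biotin-AbN/25 donor beads with Ab4G8 acceptor beads for total Abeta or cAb42/26 for Abeta 1-42, read at 615 nm after 650 nm excitation following 1 hour. Cells were SKNBE2 expressing wild-type hAPP695, exposed to compound for 18 hours.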

For a further data set, the system named is Abeta total. Briefly: Cellular αLisa assay in SKNBE2 cells, Abeta total. In kind it is cell-based, human. The following applies: incubated for 18 hours; for IC50: Homo sapiens, SKNBE2, 18 h, read-out: Cellular αLisa assay in SKNBE2 cells Abetatotal pIC50 (converted). A digest of the protocol: as §1
For the next data set, the target named is T1, P-gp (Homo sapiens, UniProt P08183).
T1 construct: expressed in transfected cells; host or cells: LLC-PK1 cells stably transduced with MDR1 (LLC-MDR1)
T1 sequence (P08183 whole entry): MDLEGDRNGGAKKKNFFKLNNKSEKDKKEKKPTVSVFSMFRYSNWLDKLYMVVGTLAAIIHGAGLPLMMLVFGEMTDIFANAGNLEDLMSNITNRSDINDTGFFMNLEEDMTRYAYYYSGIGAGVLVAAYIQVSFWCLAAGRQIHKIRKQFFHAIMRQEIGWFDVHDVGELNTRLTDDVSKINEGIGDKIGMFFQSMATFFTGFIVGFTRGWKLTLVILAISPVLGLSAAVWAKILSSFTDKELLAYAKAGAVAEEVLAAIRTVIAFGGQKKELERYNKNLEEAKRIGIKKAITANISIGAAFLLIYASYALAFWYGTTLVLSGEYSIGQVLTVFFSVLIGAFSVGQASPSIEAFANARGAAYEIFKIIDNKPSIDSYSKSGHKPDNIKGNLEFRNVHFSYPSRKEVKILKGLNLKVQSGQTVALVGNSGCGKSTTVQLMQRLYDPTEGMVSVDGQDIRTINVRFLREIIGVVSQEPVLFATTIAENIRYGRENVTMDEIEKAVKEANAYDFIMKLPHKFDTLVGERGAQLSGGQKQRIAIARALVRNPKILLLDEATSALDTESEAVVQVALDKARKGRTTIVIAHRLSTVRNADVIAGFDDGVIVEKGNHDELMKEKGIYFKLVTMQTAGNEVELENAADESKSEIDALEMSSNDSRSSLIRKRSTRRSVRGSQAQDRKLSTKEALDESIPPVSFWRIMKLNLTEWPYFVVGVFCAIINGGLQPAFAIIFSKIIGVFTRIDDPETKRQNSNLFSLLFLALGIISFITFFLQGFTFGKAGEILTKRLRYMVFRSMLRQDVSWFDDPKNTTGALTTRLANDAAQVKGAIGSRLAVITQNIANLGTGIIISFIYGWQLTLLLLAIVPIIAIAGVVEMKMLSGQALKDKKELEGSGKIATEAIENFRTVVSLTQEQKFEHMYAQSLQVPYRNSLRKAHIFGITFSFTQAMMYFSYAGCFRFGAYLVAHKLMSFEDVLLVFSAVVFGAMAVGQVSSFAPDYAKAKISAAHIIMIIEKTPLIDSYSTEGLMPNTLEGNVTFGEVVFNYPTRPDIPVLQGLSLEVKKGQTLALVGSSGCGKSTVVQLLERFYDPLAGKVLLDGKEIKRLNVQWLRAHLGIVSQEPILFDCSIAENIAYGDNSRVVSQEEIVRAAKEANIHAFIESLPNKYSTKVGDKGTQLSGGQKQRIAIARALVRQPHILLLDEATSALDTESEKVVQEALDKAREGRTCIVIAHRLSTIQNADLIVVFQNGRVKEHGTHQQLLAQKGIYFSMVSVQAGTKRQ
Briefly: Transepithelial transport of test compounds through LLC-MDR1 monolayers. In kind it is in vitro ADME. To be noted: for Papp A→B at 120 min, 1 μM: read-out: A to B (Apparent Permeability, Papp); for Papp B→A at 120 min, 1 μM: read-out: B to A (Apparent Permeability, Papp). The method, boiled down: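 LLC-PK1 cells stably transduced with human MDR1, grown 5 days on transwell inserts; compound at 1 μM applied apically or basolaterally (A→B, B→A) in OPTI-MEM with 1% BSA, 120 min at 37 °C, triplicate. Acceptor and donor sampled and quantified by LC-MS/MS; fluorescein checked monolayer integrity.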

For the next data set, the system named is Aβ42. Briefly: Demonstration of in vivo efficacy, brain Aβ42 lowering (ELISA). The following applies: mouse brain, 30 mpk. The text has this: (§2) To determine whether acute administration of an Aβ42 peptide lowering agent would reduce Aβ peptide levels in vivo, non-transgenic rodents, e.g. mice or rats were used. Animals treated with the Aβ peptide lowering agent were examined and compared to those untreated or treated with vehicle and brain levels of soluble Aβ42 and total Aβ were quantitated by standard techniques, for example, using ELISA.
(§3) A typical protocol for measuring Aβ42 lowering in vivo is shown but it is only one of many variations that could be used to optimize the levels of detectable Aβ. For example, Aβ peptide lowering compounds were formulated in 20% hydroxypropyl 3 cyclodextrin. The Aβ peptide lowering agents were administered as a single oral dose (p.o.) or a single subcutaneous dose (s.c.) to overnight fasted animals. After a certain time, usually 2 or 4 h (as indicated in Table 19), the animals were sacrificed and Aβ42 levels were analysed.
(§4) Blood was collected by decapitation and exsanguinations in EDTA-treated collection tubes. Blood was centrifuged at 1900 g for 10 minutes (min) at 4° C. and the plasma recovered and flash frozen for later analysis. The brain was removed from the cranium and hindbrain. The cerebellum was removed and the left and right hemisphere were separated. The left hemisphere was stored at −18° C. for quantitative analysis of test compound levels. The right hemisphere was rinsed with phosphate-buffered saline (PBS) buffer and immediately frozen on dry ice and stored at −80° C. until homogenization for biochemical assays.
(§5) Mouse brains from non-transgenic animals were resuspended in 8 volumes of 0.4% DEA (diethylamine)/50 mM NaCl containing protease inhibitors (Roche-11873580001 or 04693159001) per gram of tissue, e.g. for 0.158 g brain, add 1.264 ml of 0.4% DEA. All samples were homogenized in the FastPrep-24 system (MP Biomedicals) using lysing matrix D (MPBio #6913-100) at 6 m/s for 20 seconds. Homogenates were centrifuged at 221.300×g for 50 min. The resulting high speed supernatants were then transferred to fresh eppendorf tubes. Nine parts of supernatant were neutralized with 1 part 0.5 M Tris-HCl pH 6.8 and used to quantify Aβtotal and Aβ42.
(§6) To quantify the amount of Aβtotal and Aβ42 in the soluble fraction of the brain homogenates, Enzyme-Linked-Immunosorbent-Assays were used. Briefly, the standards (a dilution of synthetic Aβ1-40 and Aβ1-42, Bachem) were prepared in 1.5 ml Eppendorf tube in Ultraculture, with final concentrations ranging from 10000 to 0.3 pg/ml. The samples and standards were co-incubated with HRPO-labelled N-terminal antibody for Aβ42 detection and with the biotinylated mid-domain antibody 4G8 for Aβtotal detection. […] The plate was allowed to incubate overnight at 4° C. in order to allow formation of the antibody-amyloid complex. Following this incubation and subsequent wash steps the ELISA for Aβ42 quantification was finished by addition of Quanta Blu fluorogenic peroxidase substrate according to the manufacturer's instructions (Pierce Corp., Rockford, Ill.). A reading was performed after 10 to 15 min (excitation 320 nm/emission 420 nm).
(In an ELISA, binding on a coated surface is turned into a signal by an enzyme label.)

The target in data set [1] is recombinant BACE1 protein (Homo sapiens, UniProt P56817). Kind of data set: Biochemical FRET based assay. The following applies: recombinant BACE1 1 μg/ml, 120 minutes at room temperature, pH 5.0; for IC50: read-out: Biochemical FRET based assay pIC50 (converted). A digest of the protocol:
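Proteolysis was read as the rise in donor fluorescence (320 nm excitation, 405 nm emission) from T0 to T120, expressed in RFU. The reaction ran 120 minutes at room temperature at pH 5.0 in citrate buffer with 4% DMSO, using […] quenched Swedish APP peptide and 1 μg/ml BACE1.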

In the next data set the test system is Aβtotal. Briefly: Demonstration of in vivo efficacy, brain Aβtotal lowering (ELISA). To be noted: mouse brain, 30 mpk.
Source text: as §2, §3, §4, §5, §6
For Aβtotal detection, a Streptavidine-Peroxidase-Conjugate was added, followed 60 min later by an additional wash step and addition of Quanta Blu fluorogenic peroxidase substrate according to the manufacturer's instructions (Pierce Corp., Rockford, Ill.). A reading was performed after 10 to 15 min (excitation 320 nm/emission 420 nm).

Sequence of recombinant BACE1 protein (P56817 46-501): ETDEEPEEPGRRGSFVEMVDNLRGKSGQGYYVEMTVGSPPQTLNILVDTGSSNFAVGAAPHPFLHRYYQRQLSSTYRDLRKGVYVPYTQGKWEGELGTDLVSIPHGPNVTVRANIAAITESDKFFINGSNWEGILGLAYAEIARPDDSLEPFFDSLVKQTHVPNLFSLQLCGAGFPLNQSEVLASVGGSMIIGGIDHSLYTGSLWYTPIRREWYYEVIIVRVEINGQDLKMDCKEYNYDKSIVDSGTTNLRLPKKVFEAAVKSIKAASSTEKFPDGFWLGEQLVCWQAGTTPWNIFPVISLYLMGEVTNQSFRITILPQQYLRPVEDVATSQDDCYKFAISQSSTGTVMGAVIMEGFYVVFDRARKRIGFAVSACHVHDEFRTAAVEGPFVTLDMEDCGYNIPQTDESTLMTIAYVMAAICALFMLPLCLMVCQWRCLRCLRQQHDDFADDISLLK

With `CC1(c2cc(-c3cncnc3)c(F)cc2F)COCC(N)=N1` (single isomer, unassigned) [Compound 55], the “Cellular αLisa assay in SKNBE2 cells Abeta 42 pIC50” value with Abeta 1-42 was determined as 6.89. Further, the “Cellular αLisa assay in SKNBE2 cells Abetatotal pIC50” value with Abeta total was found to be 6.99. Besides, at P-gp (LLC-MDR1 monolayers, 1 μM test compound, 120 minutes, apical to basolateral, absence of GF120918), the “A to B (Apparent Permeability, Papp)” value came to 9.5 ×10⁻⁶ cm/s. For the same molecule, the “B to A (Apparent Permeability, Papp)” value at P-gp (LLC-MDR1 monolayers, 1 μM test compound, 120 minutes, basolateral to apical) was determined as 34.4 ×10⁻⁶ cm/s. Moreover, the BA/AB at P-gp (LLC-MDR1 monolayers, ratio of B to A and A to B permeation rates) was 3.6. Further, the “Aβ42 (% Ctrl)_Mean” value with Aβ42 (s.c., 4 h) is reported as 88 % Ctrl. The “Biochemical FRET based assay pIC50” value in data set [1] is listed as 5.55. Moreover, the “Aβtotal (% Ctrl)_Mean” value in the data set with Aβtotal (s.c., 4 h) amounted to 87 % Ctrl.
Consider `C[C@@]1(c2cc(-c3cncnc3)c(F)cc2F)N=C(N)CO[C@H]1F` (single isomer, unassigned) [Compound 82, (S*,S*)-5-(2,4-difluoro-5-pyrimidin-5-ylphenyl)-6-fluoro-5-methyl-5,6-dihydro-2H-1,4-oxazin-3-amine], for which the results for the IC50 (with Abeta 1-42; in the data set with Abeta total; in data set [1]) were 251 nM, 245 nM and 631 nM, respectively. Besides, the efflux ratio at 120 min, 1 μM at P-gp (pig, LLC-PK1, LLC-MDR1 monolayers, ratio of B to A and A to B permeation rates, read-out: BA/AB) stood at 2.3. Also, the Papp A→B (usually the apparent permeability from the apical to the basolateral side of a cell layer) at 120 min, 1 μM on P-gp (pig, LLC-PK1) was 10.5 ×10⁻⁶ cm/s. Further, the Papp B→A (as a rule, the apparent permeability from the basolateral to the apical side of a cell layer) at 120 min, 1 μM at P-gp (pig, LLC-PK1) amounted to 23.9 ×10⁻⁶ cm/s. In the data set on Aβ42 (s.c., 2 h), the “Aβ42 (% Ctrl)_Mean” value is 57 % Ctrl. Moreover, the “Aβtotal (% Ctrl)_Mean” value in the data set with Aβtotal (s.c., 2 h) is recorded as 44 % Ctrl.
In the case of `CC1(c2cc(NC(=O)c3ccc(Cl)cn3)ccc2F)N=C(N)COC1F` (single isomer, unassigned) [Compound 134], the “Cellular αLisa assay in SKNBE2 cells Abeta 42 pIC50” value in the data set with Abeta 1-42 worked out at 8.39. In addition, the “Cellular αLisa assay in SKNBE2 cells Abetatotal pIC50” value with Abeta total is given as 8.42. For the same molecule, on P-gp (pig, LLC-PK1), the Papp A→B at 120 min, 1 μM was found to be 8.9 ×10⁻⁶ cm/s and the Papp B→A at 120 min, 1 μM was 17.7 ×10⁻⁶ cm/s. Moreover, the “Aβ42 (% Ctrl)_Mean” value in the data set with Aβ42 (p.o., 4 h) is recorded as 27 % Ctrl. For the same molecule, the “Aβtotal (% Ctrl)_Mean” value with Aβtotal (p.o., 4 h) is 35 % Ctrl.
As for `COc1cnc(C(=O)Nc2ccc(F)c([C@@]3(C)N=C(N)CO[C@H]3C(F)(F)F)c2)cn1` [Compound 166, (2R,3R)—N-{3-[5-amino-3-methyl-2-(trifluoromethyl)-3,6-dihydro-2H-1,4-oxazin-3-yl]-4-fluorophenyl}-5-methoxypyrazine-2-carboxamide], the IC50 in the data set on Abeta 1-42 was 12.6 nM; with Abeta total, 12.3 nM; in data set [1], 50.1 nM. Besides, the apical-to-basolateral permeability (Papp A→B) at 120 min, 1 μM at P-gp (pig, LLC-PK1) was determined as 13.7 ×10⁻⁶ cm/s. For the same molecule, on P-gp (pig, LLC-PK1), the Papp B→A at 120 min, 1 μM came to 13.6 ×10⁻⁶ cm/s. In addition, the “Aβ42 (% Ctrl)_Mean” value with Aβ42 (p.o., 4 h) amounted to 50 % Ctrl. Moreover, the “Aβtotal (% Ctrl)_Mean” value in the data set with Aβtotal (p.o., 4 h) was determined as 43 % Ctrl.
In the case of `C[C@]1(c2cc(NC(=O)c3ccc(C#N)cn3)ccc2F)N=C(N)CO[C@H]1C(F)(F)F` [Compound 169], the IC50 is 6.92 nM with Abeta 1-42, 6.76 nM with Abeta total and 56.2 nM in data set [1]. Moreover, the Papp A→B at 120 min, 1 μM at P-gp (pig, LLC-PK1) is 10.5 ×10⁻⁶ cm/s. Also, the Papp B→A at 120 min, 1 μM at P-gp (pig, LLC-PK1) was found to be 19 ×10⁻⁶ cm/s. Further, the “Aβ42 (% Ctrl)_Mean” value in the data set on Aβ42 (p.o., 4 h) was 38 % Ctrl. The “Aβtotal (% Ctrl)_Mean” value with Aβtotal (p.o., 4 h) is on record as 39 % Ctrl.
